Laboratory results from patent US20170143733A1, “COMPOUNDS AND METHODS FOR SKIN REPAIR” (Allergan, Inc., priority 2012, published 2017).

Columns and labels:
[1] = biological target: T1, EP2 (Homo sapiens, UniProt P43116); assay: EP2 cAMP functional assay; type: cell-based
[2] = biological target: T2, EP4 (Homo sapiens, UniProt P35408); assay: EP4 cAMP functional assay; type: cell-based
[3] = biological target: T2, EP4; assay: EP4 binding assay (Ki)
[4] = system: incisional wounds; assay: Incisional skin wound model and assessment; type: in vivo, Sprague-Dawley rats; settings: rats, Day 7, topical 0.004% twice daily for 5 days, drug-treated, scale of 0 to 6, higher = severer scar
Excerpt: Sprague-Dawley rats at 180-200 gram were anesthetized with isoflourane. After shaving, 2-cm long incisions were made on the left and right side of the back, reaching the deep fascia on the back skin of rats under sterile conditions. Incisional wounds were immediately closed with 4.0 sutures, and then topically treated with a vehicle or test drugs at 0.004% twice daily for 5 days. The vehicle used here contains ethanol 30%, propylene glycol 12%, dipropylene glycol 5%, benzyl alcohol 5%, glycerol 3% and normal saline 45%. Wounds were photographed on day 7. All photos were coded and scored by lay people. Evaluation of wound sites was based on scar width, palpability (elevation) of wound areas, and general progress in healing, using a scale of 0 to 6; the severer a scar, the higher the score. Each scar was divided into 4 regions, separated by suture sites; each quarter was scored independently; the mean of the 4 part scores was recorded as the overall scar score of each incision site.

[5] = biological target: T1, EP2; assay: EP2 binding assay (Ki)

T2 sequence (P35408 whole entry): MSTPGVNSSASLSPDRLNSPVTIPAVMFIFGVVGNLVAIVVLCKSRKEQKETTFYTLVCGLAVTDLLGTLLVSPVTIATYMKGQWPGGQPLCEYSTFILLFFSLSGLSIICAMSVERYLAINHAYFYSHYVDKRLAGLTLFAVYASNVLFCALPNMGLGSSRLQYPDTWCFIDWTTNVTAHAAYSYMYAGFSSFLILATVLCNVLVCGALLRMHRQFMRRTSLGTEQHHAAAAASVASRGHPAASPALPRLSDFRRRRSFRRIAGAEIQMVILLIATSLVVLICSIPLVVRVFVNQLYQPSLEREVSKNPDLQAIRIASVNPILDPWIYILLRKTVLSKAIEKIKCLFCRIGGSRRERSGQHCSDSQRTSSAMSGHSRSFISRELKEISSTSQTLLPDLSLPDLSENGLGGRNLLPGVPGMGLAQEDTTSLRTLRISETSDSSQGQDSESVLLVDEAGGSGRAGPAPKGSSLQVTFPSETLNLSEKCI
T1 sequence (P43116 whole entry): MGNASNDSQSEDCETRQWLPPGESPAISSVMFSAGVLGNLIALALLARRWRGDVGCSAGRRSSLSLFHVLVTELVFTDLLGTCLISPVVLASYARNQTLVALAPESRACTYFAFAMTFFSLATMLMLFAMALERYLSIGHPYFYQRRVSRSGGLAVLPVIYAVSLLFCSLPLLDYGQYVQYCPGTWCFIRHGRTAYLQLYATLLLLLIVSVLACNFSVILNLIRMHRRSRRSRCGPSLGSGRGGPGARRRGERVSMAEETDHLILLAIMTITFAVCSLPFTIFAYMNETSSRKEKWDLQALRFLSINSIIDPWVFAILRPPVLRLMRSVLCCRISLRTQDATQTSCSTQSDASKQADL

Row | Structure (SMILES) | EC50 [1] [nM] | EC50 [2] [nM] | IC50 [3] [nM] | IC50 [5] [nM] | Scar Scores [4]
1 | CC1(C)C(=O)[C@H](C/C=C\CCCC(=O)O)[C@@H](/C=C/[C@H](O)CCc2sc3ccccc3c2Cl)[C@@H]1O [Compound 2] | > 10000 | 0.3 | 7 | – | 0.60 ± 0.1
2 | O=C(O)c1ccc(CC2Sc3c(Cl)cccc3N(Cc3ccccc3C(F)(F)F)C2=O)cc1 (stereo not drawn) [Compound 5] | 1.9 | 4 | 0.3 | 1 | 0.56 ± 0.07
3 | O=C(O)c1ccc(CCCN2C(=O)CC[C@@H]2CC[C@@H](O)Cc2cccc(C(F)(F)F)c2)s1 [Compound 4] | 71 | – | – | 4650 | 0.76 ± 0.07

Continued, in another order:

Row | EC50 [1] [nM] | EC50 [2] [nM] | IC50 [3] [nM] | IC50 [5] [nM] | Structure (SMILES) | Scar Scores [4]
4 | – | > 10000 | – | 21 | CCCCC[C@H](O)c1ccc(N2C(=O)CC[C@@H]2CCCc2ccc(C(=O)O)s2)cc1 [Compound 3] | –
5 | > 10000 | 0.9 | 81 | > 10000 | O=C(O)CCCCCC[C@H]1C(=S)CCC[C@@H]1CCC(O)Cc1ccccc1 (stereo partly drawn) [Compound 1] | –
